Assay results: patent publication US20040005702A1, “Insulin producing cell-line” (priority 2000, published 2004)
Several values for one entry are separate records, joined by “and”; a condition that tells them apart may be missing. Equal entries are not always repeated. Entries after “also recorded” stand apart in the source; their conditions may differ.

How the values were obtained:
[1] = system: 1.1E7 cells; experiment: Glucose oxidation from D-[U-14C]glucose, 1.1E7 cells; format: cell-based, human; settings: 2 mmol/l 5-thioglucose
Procedure: (§1) A modification of the method developed by Keen et al. (1963) was used to determine oxidative glucose metabolism to CO2. In principle, the method involves incubation of cells in specially designed glass cups suspended inside standard counting vials with an airtight rubber stopper. A disc of filter paper (Whatman No. 1) was placed on the base of the counting vial. For each sample, 2.0×10^5 cells were incubated in the presence of either 1.1, 5.6, 11.1, 16.7 mmol/l glucose and D-[U-^14C] glucose to give a final concentration of […] (40 μl total volume). Effect of 2 mmol/l 5-thioglucose were also tested in 1.1 and 16.7 mmol/l glucose Blanks were set up where the cells were omitted and replaced with KRBB to give a final concentration of either 1.1 or 16.7 mmol/l glucose. Standards consisted of ^14C-labelled glucose (0.5 μCi) added to the filter paper at the base of the counting vial. The glass vials were sealed with the rubber caps and placed at 37° C. for one hour. The reaction was stopped by the addition of 0.2M HCl ([…]) injected through the rubber cap directly into the centre well using a Hamilton syringe. Phenylethylamine (PEA) was added (100 μl) through the sealed lid onto the filter paper at the base of the vial. Care was taken to avoid contamination of the centre well with PEA. […] Vials were capped and ^14C-glucose labelled radioactivity determined by scintillation counter.

[2] = system: 1.1B4 cells; experiment: Glucose oxidation from D-[U-14C]glucose, 1.1B4 cells; format: cell-based, human; settings: 2 mmol/l 5-thioglucose
Procedure: as §1

[3] = system: PANC-1 cells; experiment: Glucose utilisation from [5-3H]glucose, PANC-1 cells; format: cell-based, human; settings: 2 mmol/l 5-thioglucose, this concentration = 16.7 mmol/l glucose
Procedure: (§2) Experiments were performed in specially designed glass cups suspended inside standard counting vials with an airtight stopper. For each sample, 2.0×10^5 cells were incubated in the presence of either 1.1, 5.6, 11.1 or 16.7 mmol/l glucose and D-[5 ^3H] glucose to give a final concentration of 0.25 μCi (40 μl total volume) Effects of 2 mmol/l 5-thioglucose were also tested in 1.1 and 16.7 mmol/l glucose. Blanks were set up where the cells were omitted and replaced with KRBB to give a final concentration of either 1.1 or 16.7 mmol/l glucose. Standards consisted of D-[5^−3H] glucose (0.5 μCi) added to the base of the counting vial. The glass vials were sealed with the rubber caps and placed at 37° C. for one hour. The reaction was stopped by the addition of 0.2M HCl (50 μl) injected through the rubber cap directly into the centre well using a Hamilton syringe. Sterile deionized water was added (500 μl) through the sealed lid into the base of the vial. Vials were then placed at 37° C. for a 15 hour. The rubber caps and centre wells were removed and 5 ml of liquid scintillation fluid (BDH) added to each vial on top of the filter paper. Vials were capped and ^3H-glucose labelled radioactivity determined by scintillation counter.

[4] = system: 1.1B4 cells; experiment: Glucose utilisation from [5-3H]glucose, 1.1B4 cells; format: cell-based, human; settings: 2 mmol/l 5-thioglucose
Procedure: as §2

[5] = system: 1.1B4, 1.1E7, 1.4E7 and 1.2B4 cells; experiment: Acute static incubation, insulin secretion, statements pooled over all four cell lines; format: cell-based, human; settings: for insulin release from the novel cell lines: each of the novel cell lines, glucose concentration not stated; for insulin release at 11.1 mmol/l glucose: novel cells
Procedure: (§3) Acute static incubations at 37° C. were performed using monolayers of insulin-secreting cells. […] Approximately 2.5×10^5 cells were then seeded in each well of 24-well multiplates (Iwaki Glass, Japan). […] The cells were incubated at 37° C. for 40 minutes, after which the buffer was removed and replaced with 0.5 ml KRBB test buffer. […] After 60 min incubation at 37° C., a 450 μl aliquot of KRBB test buffer was removed from each well into 2 ml polypropylene tube (Lip Plastics, England) and centrifuged at 900 rpm for 5 minutes at 4° C. The supernatant was then collected from each tube and 200 μl aliquots were then stored at −20° C. for subsequent insulin determination by radioimmunoassay.
(§4) Human insulin standards were prepared over a range of 2-fold serial dilutions from 5.0 ng/ml to 0.009 ng/ml using Human insulin standard (Sigma Chemical, UK). […] This antiserum was specificaly selected for high affinity with human insulin standard.
(§5) After a further 24 hours incubation at 4° C., 1 ml of a 5% (w/v) charcoal coated with 1:10 dextran T-70 in sodium phosphate buffer (40 mmol/1, pH 7.4) was added to each tube. […] Counts bound to antibody (average total counts minus counts bound to charcoal) are inversely proportional to the concentration of insulin in the standard or unknown sample. The unknown concentration was determined by means of the standard curve, constructed from the known […] insulin standard using a spline curve fitting algorithim.

[6] = system: human islet-derived 1.1B4 cells; experiment: Acute static incubation, insulin secretion by radioimmunoassay, 1.1B4 cells; format: cell-based; settings: for increase of insulin secretion: at 5.6 mmol/l glucose; for increase of the effect on raising glucose from 5.6 mmol/l to 11.1 mmol/l: 11.1 vs 5.6 mmol/l glucose
Procedure: as §3, §4, §5

[7] = system: 1.1E7 cells; experiment: Glucose utilisation from [5-3H]glucose, 1.1E7 cells; format: cell-based, human; settings: 2 mmol/l 5-thioglucose, tested at 1.1 and 16.7 mmol/l glucose
Procedure: as §2

[8] = system: 1.2B4 cells; experiment: Glucose oxidation from D-[U-14C]glucose, 1.2B4 cells; format: cell-based, human; settings: 2 mmol/l 5-thioglucose, tested at 1.1 and 16.7 mmol/l glucose
Procedure: as §1

[9] = system: Hup-T3 cells; experiment: Glucose oxidation from D-[U-14C]glucose, Hup-T3 cells; format: cell-based, human; settings: 2 mmol/l 5-thioglucose, tested at 1.1 and 16.7 mmol/l glucose
Procedure: as §1

[10] = system: 1.2B4 cells; experiment: Glucose utilisation from [5-3H]glucose, 1.2B4 cells; format: cell-based, human; settings: 2 mmol/l 5-thioglucose, tested at 1.1 and 16.7 mmol/l glucose
Procedure: as §2

[11] = system: human islet-derived 1.2B4 cells; experiment: Acute static incubation, insulin secretion by radioimmunoassay, 1.2B4 cells; format: cell-based
Procedure: as §3, §4, §5

[12] = system: human islet-derived 1.4E7 cells; experiment: Acute static incubation, insulin secretion by radioimmunoassay, 1.4E7 cells; format: cell-based
Procedure: as §3, §4, §5

[13] = system: 1.4E7 cells; experiment: Glucose utilisation from [5-3H]glucose, 1.4E7 cells; format: cell-based, human; settings: 2 mmol/l 5-thioglucose, tested at 1.1 and 16.7 mmol/l glucose
Procedure: as §2

[14] = system: Hup-T3 cells; experiment: Glucose utilisation from [5-3H]glucose, Hup-T3 cells; format: cell-based, human; settings: 2 mmol/l 5-thioglucose, tested at 1.1 and 16.7 mmol/l glucose
Procedure: as §2

[15] = system: 1.4E7 cells; experiment: Glucose oxidation from D-[U-14C]glucose, 1.4E7 cells; format: cell-based, human; settings: 2 mmol/l 5-thioglucose
Procedure: as §1

[16] = system: PANC-1 cells; experiment: Glucose oxidation from D-[U-14C]glucose, PANC-1 cells; format: cell-based, human; settings: 2 mmol/l 5-thioglucose, tested at 1.1 and 16.7 mmol/l glucose
Procedure: as §1

[17] = system: human islet-derived 1.1E7 cells; experiment: Acute static incubation, insulin secretion by radioimmunoassay, 1.1E7 cells; format: cell-based; settings: for threshold glucose concentration for stimulation of insulin release in the presence of the agent: IBMX or 2 mmol/l 5-thioglucose included
Procedure: as §3, §4, §5

[18] = tested at 1.1 and 16.7 mmol/l glucose
[19] = 2 mmol/l 5-thioglucose, 0 to 11.1 mmol/l glucose
[20] = all four cell lines, 16.7 mmol/l glucose
[21] = 200 μmol/ IBMX, glucose 0 to 16.7 mmol/l

O=C[C@H](O)[C@@H](O)[C@H](O)[C@H](S)CO [5-thioglucose]
ratio of glucose oxidation:glucose utilisation on addition of 5-thioglucose [1]: significant increase in ratio | ratio of glucose oxidation:glucose utilisation on addition of 5-thioglucose [2]: significant increase in ratio | effect of 5-thioglucose on glucose oxidation [2, 18]: inhibit the oxidation of glucose at both 1.1 mmol/l and 16.7 mmol/l glucose; also recorded: only marginally inhibited | effect of 5-thioglucose on glucose utilisation [3]: inhibit utilisation only at this concentration | effect of 5-thioglucose on glucose utilisation ([4]; 1.1 mmol/l glucose): did not affect | effect of 5-thioglucose on glucose utilisation ([4]; 16.7 mmol/l glucose): reduce utilisation | effect of 5-thioglucose on responsiveness to increasing glucose concentrations ([5]; all four cell lines, 2 mmol/l 5-thioglucose): improved; also recorded: caused a shift | lowering of insulin output by 5-thioglucose [6, 19]: 20-50% and 20 to 50% | effect of 5-thioglucose on glucose utilisation [7]: only affected utilisation at 16.7 mmol/l | effect of 5-thioglucose on glucose oxidation [8]: inhibited oxidation at 16.7 mmol/l | effect of 5-thioglucose on glucose oxidation [9]: able to inhibit oxidation at both 1.1 and 16.7 mmol/l glucose | effect of 5-thioglucose on glucose utilisation [10]: had no affect | glucose-stimulated insulin release in the presence of 5-thioglucose ([11]; 2 mmol/l 5-thioglucose): became apparent | lowering of insulin output by 5-thioglucose [11, 19]: 20-50% and 20 to 50% | effect of 5-thioglucose on insulin output and glucose responsiveness ([12]; 2 mmol/l 5-thioglucose): least affected; also recorded: not affected | effect of 5-thioglucose on glucose utilisation [13]: unaffected | effect of 5-thioglucose on glucose utilisation [14]: did not inhibit | ratio of glucose oxidation:glucose utilisation on addition of 5-thioglucose [15]: significant increase in ratio | effect of 5-thioglucose on glucose oxidation [15, 18]: clearly inhibiting oxidation at both 1.1 and 16.7 | effect of 5-thioglucose on glucose oxidation [16]: significant inhibition of oxidation at both 1.1 and 16.7 mmol/l | lowering of insulin output by 5-thioglucose [17, 19]: 20-50% and 20 to 50% | threshold glucose concentration for stimulation of insulin release in the presence of the agent [17]: 5.6 mmol/L

CC1=NS(=O)(=O)c2cc(Cl)ccc2N1 [Diazoxide, diazoxide]
inhibition at 400 µM ([5]; Homo sapiens, all four cell lines, 16.7 mmol/l glucose, diazoxide 400 μmol/l, EGTA in Ca2+-free buffer, read-out: inhibition of insulin release): 20 to 50% | insulin output at 16.7 mmol/l glucose [5, 20]: significantly reduced

O=C(O)CN(CCOCCOCCN(CC(=O)O)CC(=O)O)CC(=O)O [EGTA]
insulin output at 16.7 mmol/l glucose [5, 20]: significantly inhibited

[Cl-].[K+] [KCl]
secretory responsiveness at passage 40 ([5]; all four cell lines, passage 40 vs 17): maintain responsiveness | insulin release from the novel cell lines [5]: provoked insulin release

CC(C)CC(=O)C(=O)O [KIC]
insulin release at 11.1 mmol/l glucose [5]: significant increases in insulin release | insulin secretion at 11.1 mmol/l glucose [11]: induced insulin secretion | insulin secretion at 11.1 mmol/l glucose [12]: induced insulin secretion | insulin secretory response at 11.1 mmol/l glucose compared with 5.6 mmol/l [17]: significantly greater

C[C@H](N)C(=O)O [alanine, L-alanine]
insulin release at 11.1 mmol/l glucose [5]: significant increases in insulin release | increase of insulin secretion [6]: Significant effects | insulin secretion at 11.1 mmol/l glucose [11]: induced insulin secretion | insulin secretion at 11.1 mmol/l glucose [12]: induced insulin secretion | insulin secretory response at 11.1 mmol/l glucose compared with 5.6 mmol/l [17]: significantly greater

N=C(N)NCCC[C@H](N)C(=O)O [arginine, L-arginine]
insulin secretion at non-stimulatory glucose ([5]; each cell line, 5.6 mmol/l glucose): significantly stimulated | insulin release at 11.1 mmol/l glucose [5]: significant increases in insulin release | increase of the effect on raising glucose from 5.6 mmol/l to 11.1 mmol/l [6]: 17% | insulin secretory response at 11.1 mmol/l glucose compared with 5.6 mmol/l [17]: significantly greater

COc1ccc(Cl)cc1C(=O)NCCc1ccc(S(=O)(=O)NC(=O)NC2CCCCC2)cc1 [glibenclamide]
insulin release from the novel cell lines [5]: provoked insulin release

O=CC(O)CO (stereo not shown) [glyceraldehyde]
insulin release from the novel cell lines [5]: significantly stimulate

CC(C)C[C@H](N)C(=O)O [leucine, L-leucine]
insulin release at 11.1 mmol/l glucose [5]: significant increases in insulin release | increase of the effect on raising glucose from 5.6 mmol/l to 11.1 mmol/l [6]: 30% | increase of insulin secretion [6]: Significant effects | insulin secretion at 11.1 mmol/l glucose [11]: induced insulin secretion | insulin secretion at 11.1 mmol/l glucose [12]: induced insulin secretion | insulin secretory response at 11.1 mmol/l glucose compared with 5.6 mmol/l [17]: significantly greater

CCCCNC(=O)NS(=O)(=O)c1ccc(C)cc1 [tolbutamide]
insulin release from the novel cell lines [5]: provoked insulin release | increase of the effect on raising glucose from 5.6 mmol/l to 11.1 mmol/l [6]: 20%

COc1ccc(CCN(C)CCCC(C#N)(c2ccc(OC)c(OC)c2)C(C)C)cc1OC (stereo not shown) [verapamil]
insulin output at 16.7 mmol/l glucose [5, 20]: similarly reduced

isobutylmethylxanthine [IBMX]
increase of secretory response to glucose by IBMX [6, 21]: 20 to 100% and 20 to 60% | stimulation of secretory response with IBMX [6, 21]: 1.3-2 fold | insulin secretion with IBMX in the absence of glucose ([6]; absence of glucose): modestly enhanced | effect of IBMX on insulin released ([11]; 200 μmol/ IBMX): did not significantly affect; also recorded: insensitive | increase of secretory response to glucose by IBMX [12, 21]: 20 to 100% and 20 to 60% | stimulation of secretory response with IBMX [12, 21]: 1.3-2 fold | insulin secretion with IBMX in the absence of glucose ([12]; absence of glucose): modestly enhanced | increase of secretory response to glucose by IBMX [17, 21]: 20 to 100% and 20 to 60% | stimulation of secretory response with IBMX [17, 21]: 1.3-2 fold | threshold glucose concentration for stimulation of insulin release in the presence of the agent [17]: 5.6 mmol/L
